The text below walks through data of ChEMBL document CHEMBL5723585, “Data for DCP probe JNJ-54082730” (2024).

Experiment [1] has as its target cAMP and cAMP-inhibited cGMP 3',5'-cyclic phosphodiesterase 10A (Homo sapiens, UniProt Q9Y233). Description: Scintillation proximity assay (PDE10A).
The target in experiment [2] is cGMP-dependent 3',5'-cyclic phosphodiesterase (Rattus norvegicus) (UniProt Q01062). Description: Target occupancy in striatum ( p.o.dose, 1 h). It is filed as organism-based.
Experiment [3] has as its target cGMP-dependent 3',5'-cyclic phosphodiesterase (Homo sapiens, UniProt O00408). The experiment can be described thus: Scintillation proximity assay (PDE2A) ( Mean (95% Confidence Interval) = 0.8 -1 nM; Ki = 0.7 nM).
The target in another experiment is Phosphodiesterase 3 (Homo sapiens, UniProt Q14432+Q13370). The experiment can be described thus: Scintillation proximity assay (PDE3). It is filed as protein assay.

The structures appear in SMILES notation.

cGMP-dependent 3',5'-cyclic phosphodiesterase, sequence (O00408 whole entry): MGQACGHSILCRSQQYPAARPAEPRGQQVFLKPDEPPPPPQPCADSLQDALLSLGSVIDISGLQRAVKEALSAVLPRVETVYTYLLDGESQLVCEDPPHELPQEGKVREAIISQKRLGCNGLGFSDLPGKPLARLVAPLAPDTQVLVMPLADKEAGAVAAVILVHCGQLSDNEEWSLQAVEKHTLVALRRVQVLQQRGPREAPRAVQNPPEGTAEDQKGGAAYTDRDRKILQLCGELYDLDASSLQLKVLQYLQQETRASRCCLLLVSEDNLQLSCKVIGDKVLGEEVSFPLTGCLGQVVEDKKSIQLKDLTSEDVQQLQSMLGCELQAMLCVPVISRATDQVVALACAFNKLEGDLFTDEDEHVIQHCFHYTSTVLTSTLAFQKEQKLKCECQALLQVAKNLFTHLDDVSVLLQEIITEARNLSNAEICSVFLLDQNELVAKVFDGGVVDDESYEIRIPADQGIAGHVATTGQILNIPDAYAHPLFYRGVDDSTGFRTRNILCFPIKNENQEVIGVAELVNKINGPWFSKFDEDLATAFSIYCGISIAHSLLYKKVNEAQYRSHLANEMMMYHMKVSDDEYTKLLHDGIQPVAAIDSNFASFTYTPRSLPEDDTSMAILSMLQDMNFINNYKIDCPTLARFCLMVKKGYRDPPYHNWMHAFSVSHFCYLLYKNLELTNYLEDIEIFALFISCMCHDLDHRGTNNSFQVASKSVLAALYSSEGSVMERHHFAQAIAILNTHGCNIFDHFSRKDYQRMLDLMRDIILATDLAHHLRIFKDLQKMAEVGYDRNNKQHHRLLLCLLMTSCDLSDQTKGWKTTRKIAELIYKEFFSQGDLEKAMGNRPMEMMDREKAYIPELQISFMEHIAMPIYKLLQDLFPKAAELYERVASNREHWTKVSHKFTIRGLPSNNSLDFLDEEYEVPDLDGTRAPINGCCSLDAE
cGMP-dependent 3',5'-cyclic phosphodiesterase (Rattus norvegicus), sequence (Q01062 whole entry): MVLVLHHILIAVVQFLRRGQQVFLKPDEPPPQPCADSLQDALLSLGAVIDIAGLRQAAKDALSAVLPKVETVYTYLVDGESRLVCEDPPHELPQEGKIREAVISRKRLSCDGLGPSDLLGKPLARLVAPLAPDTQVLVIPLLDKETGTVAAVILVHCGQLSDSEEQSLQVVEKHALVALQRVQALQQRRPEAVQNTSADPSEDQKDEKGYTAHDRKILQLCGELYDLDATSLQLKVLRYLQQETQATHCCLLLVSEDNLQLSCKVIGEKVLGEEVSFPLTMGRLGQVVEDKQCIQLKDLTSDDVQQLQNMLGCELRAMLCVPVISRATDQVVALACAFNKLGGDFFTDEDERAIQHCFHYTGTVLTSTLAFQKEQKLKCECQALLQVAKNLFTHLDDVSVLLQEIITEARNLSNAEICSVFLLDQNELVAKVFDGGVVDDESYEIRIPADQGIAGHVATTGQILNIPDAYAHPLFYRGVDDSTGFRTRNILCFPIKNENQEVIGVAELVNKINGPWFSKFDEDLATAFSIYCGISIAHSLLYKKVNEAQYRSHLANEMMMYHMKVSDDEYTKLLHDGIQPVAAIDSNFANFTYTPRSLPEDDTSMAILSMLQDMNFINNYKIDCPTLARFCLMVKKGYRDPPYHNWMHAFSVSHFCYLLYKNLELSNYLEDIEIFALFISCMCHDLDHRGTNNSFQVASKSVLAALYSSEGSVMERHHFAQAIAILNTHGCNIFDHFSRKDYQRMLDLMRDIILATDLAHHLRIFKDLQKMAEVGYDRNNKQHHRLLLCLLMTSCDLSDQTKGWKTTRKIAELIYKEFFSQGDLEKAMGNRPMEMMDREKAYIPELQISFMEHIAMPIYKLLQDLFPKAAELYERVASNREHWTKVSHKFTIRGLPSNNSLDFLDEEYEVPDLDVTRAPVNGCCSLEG
cAMP and cAMP-inhibited cGMP 3',5'-cyclic phosphodiesterase 10A, sequence (Q9Y233 whole entry): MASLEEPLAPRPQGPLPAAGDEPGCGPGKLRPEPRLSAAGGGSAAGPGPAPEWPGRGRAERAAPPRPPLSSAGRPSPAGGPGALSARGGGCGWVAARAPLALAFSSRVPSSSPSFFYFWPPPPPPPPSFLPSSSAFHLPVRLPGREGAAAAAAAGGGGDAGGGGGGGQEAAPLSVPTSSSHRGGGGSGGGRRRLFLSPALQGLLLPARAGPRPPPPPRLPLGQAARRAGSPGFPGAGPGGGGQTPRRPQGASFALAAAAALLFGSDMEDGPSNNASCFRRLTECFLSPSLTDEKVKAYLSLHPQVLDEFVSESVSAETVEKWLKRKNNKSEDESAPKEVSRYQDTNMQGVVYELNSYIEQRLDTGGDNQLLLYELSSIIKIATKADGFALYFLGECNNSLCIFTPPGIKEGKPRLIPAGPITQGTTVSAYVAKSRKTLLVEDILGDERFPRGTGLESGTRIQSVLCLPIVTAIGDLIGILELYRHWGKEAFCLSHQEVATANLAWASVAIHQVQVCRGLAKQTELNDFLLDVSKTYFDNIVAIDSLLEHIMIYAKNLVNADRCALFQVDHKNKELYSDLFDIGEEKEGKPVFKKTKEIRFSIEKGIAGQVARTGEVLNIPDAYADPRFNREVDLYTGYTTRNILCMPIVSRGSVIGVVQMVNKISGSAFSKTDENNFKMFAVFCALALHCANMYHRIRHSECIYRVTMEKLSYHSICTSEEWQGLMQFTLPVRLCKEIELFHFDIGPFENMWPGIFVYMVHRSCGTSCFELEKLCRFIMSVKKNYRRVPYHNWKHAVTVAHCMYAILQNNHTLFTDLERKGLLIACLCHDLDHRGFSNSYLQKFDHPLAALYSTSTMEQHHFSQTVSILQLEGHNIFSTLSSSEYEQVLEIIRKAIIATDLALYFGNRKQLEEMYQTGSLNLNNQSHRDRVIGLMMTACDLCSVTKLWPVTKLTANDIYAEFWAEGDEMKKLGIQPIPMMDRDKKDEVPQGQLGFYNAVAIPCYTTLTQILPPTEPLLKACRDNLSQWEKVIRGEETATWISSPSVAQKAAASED

As to `Cc1cc(C(=O)N2CC[C@H](C)[C@@H](c3cc(C(F)F)nc4ncnn34)C2)cc(C)n1`, the IC50 in experiment [1] was > 10 µM (not active); in experiment [3] it was 0.097 µM (not active); against Phosphodiesterase 3 it was over 10 µM. For the same compound, the ED50 in experiment [2] is over 80 mg/kg.
